Experimental data published in patent publication US11903955B2, “Methods of treating heart failure with reduced ejection fraction” (ASTRAZENECA AB, priority 2019, dated 2024).
Like-named read-outs stand apart in the source and are kept apart here. Marks after values point to notes of the source that are not given here.

Tested on: patients with chronic heart failure with reduced ejection fraction (LVEF ≤40%)
Settings: for Cardiovascular death or hospitalization for heart failure, Hazard Ratio (95% CI) / Cardiovascular death, Hazard Ratio (95% CI) / Death from any cause, Hazard Ratio (95% CI) / Hospitalization for heart failure or an urgent heart failure visit, Hazard Ratio (95% CI) / Hospitalization for heart failure, Hazard Ratio (95% CI) / Primary composite outcome, Hazard Ratio (95% CI) / Urgent heart failure visit, Hazard Ratio (95% CI) / Worsening renal function (composite), Hazard Ratio (95% CI) / Total number of (first and recurrent) heart failure hospitalizations and cardiovascular death, rate ratio (95% CI) / HR (95% CI) for primary outcome of CV death or worsening HF: dapagliflozin vs placebo; for Total number of (first and recurrent) heart failure hospitalizations and cardiovascular death, rate ratio (95% CI): LWYY method
Source text: Eligibility requirements included an age of at least 18 years, New York Heart Association (NYHA) class II, III, or IV symptoms, and an ejection fraction of 40% or less. […] Patients with atrial fibrillation or atrial flutter on their baseline electrocardiogram were required to have a NT-proBNP level of at least 900 pg/mL, irrespective of history of heart failure hospitalization. Patients were required to receive standard drug and device therapy for heart failure including an angiotensin-converting enzyme (ACE) inhibitor, angiotensin receptor blocker (ARB), or sacubitril/valsartan; a beta-blocker, unless contraindicated or not tolerated, and a mineralocorticoid receptor (MR) […], if considered appropriate. Doses were required to be individually optimized, in accordance with the targets recommended in guidelines, and stable for at least 4 weeks (excepting diuretics, which could be dosed flexibly). Investigators were advised that patients with type 2 diabetes should continue to take their glucose-lowering therapies, but these could be adjusted as required. Specifically, the protocol stated that the dose of insulin, sulfonylurea treatment, or both, could be reduced to minimize the risk of hypoglycemia, for example in patients with a baseline hemoglobin A1C (HbA1c) level below 7%.
All the patients provided written informed consent and entered a 14-day enrollment period during which the trial inclusion and exclusion criteria were checked and baseline information gathered, including findings from clinical examination and laboratory measurements. […] Investigators used an interactive voice or web response system to obtain treatment assignment. Randomization was stratified based on a diagnosis of type 2 diabetes, defined as either an established diagnosis or a HbA1c level of 6.5% or greater (≥48 mmol/mol) confirmed in a central laboratory at screening. Patients were evaluated at 14 days and 60 days after randomization, with a focus on assessment of heart failure and volume status, adverse events, and checking renal function and potassium. Further study visits took place at 4 months and at 4-month intervals thereafter. The protocol required that study drug be permanently discontinued if pregnancy or diabetic ketoacidosis occurred.
The primary outcome was a composite of a first episode of worsening heart failure or death from cardiovascular causes. An episode of worsening heart failure was either an unplanned hospitalization for heart failure or an urgent heart failure visit requiring intravenous therapy.^14 The first of the secondary outcomes was the composite of heart failure hospitalization or cardiovascular death.
Outcomes were adjudicated by a clinical-end-points committee, blinded to treatment assignment, according to prespecified criteria.
Using a two-sided alpha of 5%, we calculated that 844 primary endpoints would provide a statistical power of 90% for the test of the hypothesis. With an expected annual event rate of 11% in the placebo treatment group, approximately 4500 patients were estimated to provide the required number of primary events, based on an anticipated recruitment period of 18 months and an average follow-up period of approximately 24 months. A closed testing procedure was used, including a prespecified hierarchical testing of the primary and secondary endpoints in the order specified above. Type I error was controlled at a two-sided 0.0499 alpha level for multiplicity across primary and secondary endpoints and taking account of one interim efficacy analysis.
Data from all randomly assigned patients were included in the analyses of the primary and secondary outcomes, according to the intention-to-treat principle. Baseline characteristics were summarized as means and standard deviations, medians and inter-quartile ranges, or percentages.

[1] = all patients (N = 2373), listed as dapagliflozin
[2] = all patients, listed as dapagliflozin

CCOc1ccc(Cc2cc([C@@H]3O[C@H](CO)[C@@H](O)[C@H](O)[C@H]3O)ccc2Cl)cc1 [Dapagliflozin, dapagliflozin]
Worsening renal function (composite), No. (%) (all patients (N = 2373)): 28 (1.2) No. (%)
Cardiovascular death or hospitalization for heart failure, No. (%) [1]: 382 No. (%)
Cardiovascular death, No. (%) [1]: 227 No. (%)
Hospitalization for heart failure, No. (%) [1]: 231 (9.7%) No. (%)
Primary composite outcome (urgent heart failure visit, hospitalization for heart failure or cardiovascular death), No. (%) (all patients, 10 mg once daily (N = 2373), median follow-up 18.2 months): 386 (16.3) No. (%)
hospitalizations for heart failure, total first and recurrent (all patients, dapagliflozin arm): 340
Cardiovascular death or hospitalization for heart failure, Hazard Ratio (95% CI) (No T2DM): 0.73 (0.60-0.89)
Cardiovascular death, Hazard Ratio (95% CI) (No T2DM): 0.85 (0.66-1.10)
Death from any cause, Hazard Ratio (95% CI) (No T2DM): 0.88 (0.70-1.12)
Hospitalization for heart failure or an urgent heart failure visit, Hazard Ratio (95% CI) (No T2DM): 0.62 (0.48-0.80)
Hospitalization for heart failure, Hazard Ratio (95% CI) (No T2DM): 0.63 (0.48-0.81)
Primary composite outcome, Hazard Ratio (95% CI) (No T2DM): 0.73 (0.60 to 0.88)
Urgent heart failure visit, Hazard Ratio (95% CI) (No T2DM): 0.25 (0.07-0.89)
Worsening renal function (composite), Hazard Ratio (95% CI) (No T2DM): 0.67 (0.30-1.49)
Total number of (first and recurrent) heart failure hospitalizations and cardiovascular death, rate ratio (95% CI) (No T2DM): 0.73 (0.59, 0.91)
Cardiovascular death or hospitalization for heart failure, Hazard Ratio (95% CI) (T2DM): 0.75 (0.63-0.90)
Cardiovascular death, Hazard Ratio (95% CI) (T2DM): 0.79 (0.63-1.01)
Death from any cause, Hazard Ratio (95% CI) (T2DM): 0.78 (0.63-0.97)
Hospitalization for heart failure or an urgent heart failure visit, Hazard Ratio (95% CI) (T2DM): 0.77 (0.61-0.95)
Hospitalization for heart failure, Hazard Ratio (95% CI) (T2DM): 0.76 (0.61-0.95)
Primary composite outcome, Hazard Ratio (95% CI) (T2DM): 0.75 (0.63 to 0.90)
Urgent heart failure visit, Hazard Ratio (95% CI) (T2DM): 0.62 (0.24-1.59)
Worsening renal function (composite), Hazard Ratio (95% CI) (T2DM): 0.73 (0.39-1.34)
Total number of (first and recurrent) heart failure hospitalizations and cardiovascular death, rate ratio (95% CI) (T2DM): 0.77 (0.63, 0.94)
Cardiovascular death or hospitalization for heart failure, Hazard Ratio (95% CI) (all patients): 0.75 (0.65-0.85)
Cardiovascular death, Hazard Ratio (95% CI) (all patients): 0.82 (0.69-0.98)
Death from any cause, Hazard Ratio (95% CI) (all patients): 0.83 (0.71-0.97)
Hospitalization for heart failure or an urgent heart failure visit, Hazard Ratio (95% CI) (all patients): 0.70 (0.59-0.83)
Hospitalization for heart failure, Hazard Ratio (95% CI) (all patients): 0.70 (0.59-0.83)
Primary composite outcome, Hazard Ratio (95% CI) (all patients): 0.74 (0.65-0.85)
Urgent heart failure visit, Hazard Ratio (95% CI) (all patients): 0.43 (0.20-0.90)
Worsening renal function (composite), Hazard Ratio (95% CI) (all patients): 0.71 (0.44-1.16)
Total number of (first and recurrent) heart failure hospitalizations and cardiovascular death, rate ratio (95% CI) (all patients): 0.75 (0.65-0.88)‡
Total number of (first and recurrent) heart failure hospitalizations and cardiovascular death, rate ratio (95% CI) [2]: 0.75
Cardiovascular death or hospitalization for heart failure, Hazard Ratio (95% CI) [2]: 0.75
Cardiovascular death, Hazard Ratio (95% CI) [2]: 0.82
Death from any cause, Hazard Ratio (95% CI) [2]: 0.83
Hospitalization for heart failure, Hazard Ratio (95% CI) [2]: 0.70
Primary composite outcome, Hazard Ratio (95% CI) [2]: 0.74
Worsening renal function (composite), Hazard Ratio (95% CI) [2]: 0.71
HR (95% CI) for primary outcome of CV death or worsening HF (highest tertile of baseline KCCQ-TSS (>87.5)): 0.62 (0.46-0.83)
HR (95% CI) for primary outcome of CV death or worsening HF (lowest tertile of baseline KCCQ-TSS (≤65.6)): 0.70 (0.57-0.86)
HR (95% CI) for primary outcome of CV death or worsening HF (middle tertile of baseline KCCQ-TSS (65.7-87.5)): 0.77 (0.61-0.98)
numbers of patients who would need to have been treated to prevent one primary event (over the duration of the trial): 21
hazard ratio for the primary outcome (patients without diabetes, highest third of glycated hemoglobin (≥6.0%), dapagliflozin versus placebo): 0.72 (0.52, 1.00)
hazard ratio for the primary outcome (patients without diabetes, lowest third of glycated hemoglobin (≤5.6%), dapagliflozin versus placebo): 0.74 (95% CI 0.53, 1.04)
hazard ratio for the primary outcome (patients without diabetes, middle third of glycated hemoglobin (>5.6-<6.0%), dapagliflozin versus placebo): 0.71 (0.48, 1.04)
hazard ratio for the primary outcome (post hoc subgroup: patients not taking sacubitril-valsartan, dapagliflozin to placebo): 0.74
hazard ratio for the primary outcome (post hoc subgroup: patients taking sacubitril-valsartan at baseline, dapagliflozin to placebo): 0.75
